molecular target: human mGluR5 receptor (Homo sapiens (Human), UniProt P41594); assay: Calcium influx assay based on fluorescence (mGluR5 PAM activity); settings: human mGluR5 receptor-overexpressed HEK293 cell line; L-glutamate EC20; Fluo-4, FLIPR
Procedure: Efficacy as a positive allosteric modulator (PAM) of mGluR5 of the compounds of the Examples was tested as follows:
Calcium Influx Assay Based on Fluorescence
Ca^2+ (calcium) influx assay is an experiment for measuring the activity of a positive allosteric modulator of mGluR5 receptor in which human mGluR5 receptor-overexpressed HEK293 cell line is used. The day before the experiment, cells were prepared in a cell culture medium (DMEM, 5% FBS) with the density of 80,000/well, and 100 μl of cells were dispensed into each well of a poly-D-lysine-coated 96-well plate. Cells were incubated in a 5% CO2, 37° C. incubator. The next day, the cell culture medium was removed from the plate, and 100 μl of 1× Fluo-4 calcium indicator diluted with a buffer (1× Hank's balanced salt solution, 20 mM HEPES, 2.5 mM probenecid) were added to each well and incubated at 37° C. for 1 hour. The compound stock solutions were prepared in 100% DMSO, and the compounds were serially diluted with a ¼ dilution to 6 or 7 concentrations (final concentration was 10 μM to 10 nM). The diluted compound solutions were added to the plate with 0.1 to 0.2% of final DMSO concentration. 1 hour after the addition of Fluo-4 calcium indicator, L-glutamate (EC20 concentration) and the test compound solutions were added to the plate, and Ca^2+ reaction was then measured by FLIPR at room temperature. The activity of the compounds was standardized on the basis of the results of maximum value-minimum value of fluorescent reaction, and the activity value was calculated on the basis that no activity on glutamate EC20 is 0% and the reaction to glutamate maximum value is 100%.

Chain of human mGluR5 receptor (P41594 21-1212): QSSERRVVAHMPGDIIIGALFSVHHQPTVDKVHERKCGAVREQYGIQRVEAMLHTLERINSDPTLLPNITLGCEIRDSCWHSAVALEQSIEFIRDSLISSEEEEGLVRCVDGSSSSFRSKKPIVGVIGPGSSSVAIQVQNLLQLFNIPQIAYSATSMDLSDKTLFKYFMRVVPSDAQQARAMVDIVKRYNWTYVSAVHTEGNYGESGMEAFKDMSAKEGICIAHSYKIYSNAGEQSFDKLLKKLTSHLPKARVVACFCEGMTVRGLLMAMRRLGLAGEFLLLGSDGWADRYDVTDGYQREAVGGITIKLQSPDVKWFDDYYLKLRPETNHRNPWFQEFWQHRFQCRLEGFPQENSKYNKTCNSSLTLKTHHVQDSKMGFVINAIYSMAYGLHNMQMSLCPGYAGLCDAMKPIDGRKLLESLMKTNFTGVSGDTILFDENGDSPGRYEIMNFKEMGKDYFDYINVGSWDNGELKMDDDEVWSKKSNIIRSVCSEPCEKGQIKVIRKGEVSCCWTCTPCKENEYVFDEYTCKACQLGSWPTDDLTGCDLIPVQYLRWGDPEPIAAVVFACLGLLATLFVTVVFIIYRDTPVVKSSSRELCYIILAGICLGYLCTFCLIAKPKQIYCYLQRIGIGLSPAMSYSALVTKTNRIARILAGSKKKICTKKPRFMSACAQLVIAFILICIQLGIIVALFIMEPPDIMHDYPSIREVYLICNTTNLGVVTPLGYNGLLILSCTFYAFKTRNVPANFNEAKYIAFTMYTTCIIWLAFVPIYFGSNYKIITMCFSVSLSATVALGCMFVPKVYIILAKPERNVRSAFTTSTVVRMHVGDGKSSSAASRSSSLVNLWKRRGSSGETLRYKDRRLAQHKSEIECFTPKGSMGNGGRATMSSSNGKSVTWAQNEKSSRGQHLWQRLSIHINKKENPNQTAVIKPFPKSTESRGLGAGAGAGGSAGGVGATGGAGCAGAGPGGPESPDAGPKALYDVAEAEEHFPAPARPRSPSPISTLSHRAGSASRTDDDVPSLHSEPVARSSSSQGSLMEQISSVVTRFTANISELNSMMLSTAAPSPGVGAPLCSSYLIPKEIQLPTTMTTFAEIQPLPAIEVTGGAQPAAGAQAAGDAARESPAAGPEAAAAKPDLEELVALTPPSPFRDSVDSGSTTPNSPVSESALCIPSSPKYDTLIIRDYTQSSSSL

EC50 | Structure (SMILES)
0.1 to 0.5 µM | Fc1ccccc1-c1cnc2nc(COc3ccccc3)cn2c1 [Example 1, 6-(2-fluorophenyl)-2-phenoxymethylimidazo[1,2-a]pyrimidine]
0.1 to 0.5 µM | c1ccc(OCc2cn3cc(-c4ccccc4)cnc3n2)cc1 [Example 2, 2-phenoxymethyl-6-phenylimidazo[1,2-a]pyrimidine]
0.1 to 0.5 µM | COc1ccccc1-c1cnc2nc(COc3ccccc3)cn2c1 [Example 4, 6-(2-methoxyphenyl)-2-phenoxymethylimidazo[1,2-a]pyrimidine]
0.1 to 0.5 µM | Fc1cccc(-c2cnc3nc(COc4ccccc4)cn3c2)c1F [Example 7, 6-(2,3-difluorophenyl)-2-phenoxymethylimidazo[1,2-a]pyrimidine]
0.1 to 0.5 µM | Fc1ccc(-c2cnc3nc(COc4ccccc4)cn3c2)cc1 [Example 8, 6-(4-fluorophenyl)-2-phenoxymethylimidazo[1,2-a]pyrimidine]
0.5 to 1 µM | Nc1cccc(-c2cnc3nc(COc4ccccc4)cn3c2)c1 [Example 9, 6-(3-aminophenyl)-2-phenoxymethylimidazo[1,2-a]pyrimidine]
0.1 to 0.5 µM | Nc1ccccc1-c1cnc2nc(COc3ccccc3)cn2c1 [Example 10, 6-(2-aminophenyl)-2-phenoxymethylimidazo[1,2-a]pyrimidine]
0.1 to 0.5 µM | Cc1ccc(N)cc1-c1cnc2nc(COc3ccccc3)cn2c1 [Example 11, 6-(3-amino-6-methylphenyl)-2-phenoxymethylimidazo[1,2-a]pyrimidine]
0.5 to 1 µM | Nc1cc(-c2cnc3nc(COc4ccccc4)cn3c2)ccc1F [Example 12, 6-(3-amino-4-fluorophenyl)-2-phenoxymethylimidazo[1,2-a]pyrimidine]
0.5 to 1 µM | Fc1ccc(-c2cnc3nc(COc4ccccc4)cn3c2)cc1Cl [Example 13, 6-(3-chloro-4-fluorophenyl)-2-phenoxymethylimidazo[1,2-a]pyrimidine]
0.1 to 0.5 µM | CN(C)c1ccccc1-c1cnc2nc(COc3ccccc3)cn2c1 [Example 14, 6-(2-dimethylaminophenyl)-2-phenoxymethylimidazo[1,2-a]pyrimidine]
0.1 to 0.5 µM | Fc1ccc(-c2cnc3nc(COc4ccccc4)cn3c2)c(Cl)c1 [Example 15, 6-(2-chloro-4-fluorophenyl)-2-phenoxymethylimidazo[1,2-a]pyrimidine]
0.5 to 1 µM | Oc1ccccc1-c1cnc2nc(COc3ccccc3)cn2c1 [Example 16, 6-(2-hydroxyphenyl)-2-phenoxymethylimidazo[1,2-a]pyrimidine]
0.5 to 1 µM | Oc1cccc(-c2cnc3nc(COc4ccccc4)cn3c2)c1 [Example 17, 6-(3-hydroxyphenyl)-2-phenoxymethylimidazo[1,2-a]pyrimidine]
0.1 to 0.5 µM | Fc1ccc(-c2cnc3nc(COc4ccccc4)cn3c2)c(C(F)(F)F)c1 [Example 18, 6-(4-fluoro-2-trifluoromethylphenyl)-2-phenoxymethylimidazo[1,2-a]pyrimidine]
0.5 to 1 µM | Fc1ccc(-c2cnc3nc(COc4ccccc4)cn3c2)cc1F [Example 19, 6-(3,4-difluorophenyl)-2-phenoxymethylimidazo[1,2-a]pyrimidine]
0.1 to 0.5 µM | COc1cc(F)ccc1-c1cnc2nc(COc3ccccc3)cn2c1 [Example 20, 6-(2-methoxy-4-fluorophenyl)-2-phenoxymethylimidazo[1,2-a]pyrimidine]
0.5 to 1 µM | COc1cc(-c2cnc3nc(COc4ccccc4)cn3c2)ccc1F [Example 21, 6-(4-fluoro-3-methoxyphenyl)-2-phenoxymethylimidazo[1,2-a]pyrimidine]
0.5 to 1 µM | COc1cc(Cl)ccc1-c1cnc2nc(COc3ccccc3)cn2c1 [Example 22, 6-(4-chloro-2-methoxyphenyl)-2-phenoxymethylimidazo[1,2-a]pyrimidine]
0.1 to 0.5 µM | COc1cc(C#N)ccc1-c1cnc2nc(COc3ccccc3)cn2c1 [Example 23, 6-(4-cyano-2-methoxyphenyl)-2-phenoxymethylimidazo[1,2-a]pyrimidine]
0.1 to 0.5 µM | Fc1ccc(-c2cnc3nc(COc4ccccc4)cn3c2)c2c1OCO2 [Example 24, 6-(7-fluorobenzo[1,3]dioxol-4-yl)-2-phenoxymethylimidazo[1,2-a]pyrimidine]
0.1 to 0.5 µM | CSc1cc(F)ccc1-c1cnc2nc(COc3ccccc3)cn2c1 [Example 26, 6-(4-fluoro-2-methylthiophenyl)-2-phenoxymethylimidazo[1,2-a]pyrimidine]

EC50 | Structure (SMILES)
0.1 to 0.5 µM | Nc1cc(F)ccc1-c1cnc2nc(COc3ccccc3)cn2c1 [Example 27, 6-(2-amino-4-fluorophenyl)-2-phenoxymethylimidazo[1,2-a]pyrimidine]
0.5 to 1 µM | COc1cc(-c2cnc3nc(COc4ccccc4)cn3c2)c(F)cc1F [Example 28, 6-(2,4-difluoro-5-methoxyphenyl)-2-phenoxymethylimidazo[1,2-a]pyrimidine]
0.1 to 0.5 µM | Fc1ncccc1-c1cnc2nc(COc3ccccc3)cn2c1 [Example 29, 6-(2-fluoropyridin-3-yl)-2-phenoxymethylimidazo[1,2-a]pyrimidine]
0.5 to 1 µM | COc1ccc(-c2cnc3nc(COc4ccccc4)cn3c2)cn1 [Example 30, 6-(6-methoxypyridin-3-yl)-2-phenoxymethylimidazo[1,2-a]pyrimidine]
0.1 to 0.5 µM | Fc1ccc(-c2cnc3nc(COc4ccccc4)cn3c2)cn1 [Example 31, 6-(6-fluoropyridin-3-yl)-2-phenoxymethylimidazo[1,2-a]pyrimidine]
0.1 to 0.5 µM | Cc1ccncc1-c1cnc2nc(COc3ccccc3)cn2c1 [Example 32, 6-(4-methylpyridin-3-yl)-2-phenoxymethylimidazo[1,2-a]pyrimidine]
0.1 to 0.5 µM | Fc1ccc(-c2cnc3nc(COc4ccccc4)cn3c2)c(F)n1 [Example 33, 6-(2,6-difluoropyridin-3-yl)-2-phenoxymethylimidazo[1,2-a]pyrimidine]
0.1 to 0.5 µM | Clc1ccc(-c2cnc3nc(COc4ccccc4)cn3c2)cn1 [Example 34, 6-(6-chloropyridin-3-yl)-2-phenoxymethylimidazo[1,2-a]pyrimidine]
0.1 to 0.5 µM | Fc1cc(-c2cnc3nc(COc4ccccc4)cn3c2)ccn1 [Example 35, 6-(2-fluoropyridin-4-yl)-2-phenoxymethylimidazo[1,2-a]pyrimidine]
0.1 to 0.5 µM | Clc1cnccc1-c1cnc2nc(COc3ccccc3)cn2c1 [Example 36, 6-(3-chloropyridin-4-yl)-2-phenoxymethylimidazo[1,2-a]pyrimidine]
0.5 to 1 µM | Clc1ccc(-c2cnc3nc(COc4ccccc4)cn3c2)cc1 [Example 37, 6-(4-chlorophenyl)-2-phenoxymethylimidazo[1,2-a]pyrimidine]
0.1 to 0.5 µM | Cc1cc(F)ncc1-c1cnc2nc(COc3ccccc3)cn2c1 [Example 38, 6-(6-fluoro-4-methyl-3-pyridyl)-2-phenoxymethylimidazo[1,2-a]pyrimidine]
0.1 to 0.5 µM | Cc1cc(-c2cnc3nc(COc4ccccc4)cn3c2)cnc1F [Example 39, 6-(6-fluoro-5-methyl-3-pyridyl)-2-phenoxymethylimidazo[1,2-a]pyrimidine]
0.1 to 0.5 µM | Fc1ccc(-c2cnc3nc(COc4ccccc4)cn3c2)nc1 [Example 40, 6-(5-fluoro-2-pyridyl)-2-phenoxymethylimidazo[1,2-a]pyrimidine]
0.1 to 0.5 µM | Fc1cccc(OCc2cn3cc(-c4ccc(F)cc4F)cnc3n2)c1 [Example 41, 6-(2,4-difluorophenyl)-2-(3-fluorophenoxymethyl)imidazo[1,2-a]pyrimidine]
0.5 to 1 µM | COc1cc(F)ccc1-c1cnc2nc(COc3cccc(F)c3)cn2c1 [Example 42, 6-(4-fluoro-2-methoxyphenyl)-2-(3-fluorophenoxymethyl)imidazo[1,2-a]pyrimidine]
0.1 to 0.5 µM | Oc1cc(-c2cnc3nc(COc4cccc(F)c4)cn3c2)ccc1F [Example 43, 6-(4-fluoro-3-hydroxyphenyl)-2-(3-fluorophenoxymethyl)-imidazo[1,2-a]pyrimidine]
0.1 to 0.5 µM | Nc1ccccc1-c1cnc2nc(COc3cccc(F)c3)cn2c1 [Example 44, 6-(2-aminophenyl)-2-(3-fluorophenoxymethyl)imidazo[1,2-a]pyrimidine]
0.1 to 0.5 µM | Fc1cccc(OCc2cn3cc(-c4ccncc4Cl)cnc3n2)c1 [Example 45, 6-(3-chloropyridin-4-yl)-2-(3-fluorophenoxymethyl)imidazo[1,2-a]pyrimidine]
0.1 to 0.5 µM | Cc1ccncc1-c1cnc2nc(COc3cccc(F)c3)cn2c1 [Example 46, 6-(4-methylpyridin-3-yl)-2-(3-fluorophenoxymethyl)imidazo[1,2-a]pyrimidine]
0.1 to 0.5 µM | Fc1ccc(OCc2cn3cc(-c4ccc(F)cc4F)cnc3n2)cc1 [Example 47, 6-(2,4-difluorophenyl)-2-(4-fluorophenoxymethyl)imidazo[1,2-a]pyrimidine]
0.1 to 0.5 µM | Cc1cc(F)ccc1-c1cnc2nc(COc3ccc(F)cc3)cn2c1 [Example 48, 6-(4-fluoro-2-methylphenyl)-2-(4-fluorophenoxymethyl)imidazo[1,2-a]pyrimidine]

Source: patent US9745310B2 (SK BIOPHARMACEUTICALS CO., LTD., priority 2015, dated 2017)
